This is an account of results in PubChem BioAssay AID588577 (Sanford-Burnham Center for Chemical Genomics, 2011).

Calls of active or inactive are those of the source. No rule for the calls is given here.

Sequence of Caspase-3 (Homo sapiens) + Caspase-9 (Homo sapiens) (P42574 whole entry, looked up): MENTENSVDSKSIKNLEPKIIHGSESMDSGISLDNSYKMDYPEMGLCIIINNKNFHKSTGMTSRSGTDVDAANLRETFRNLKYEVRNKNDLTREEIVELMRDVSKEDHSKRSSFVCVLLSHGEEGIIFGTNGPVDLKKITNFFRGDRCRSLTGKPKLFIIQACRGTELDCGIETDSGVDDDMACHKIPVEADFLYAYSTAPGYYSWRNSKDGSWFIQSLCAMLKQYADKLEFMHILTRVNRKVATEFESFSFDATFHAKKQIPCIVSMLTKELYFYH
Sequence of Caspase-3 (Homo sapiens) + Caspase-9 (Homo sapiens) (P55211 whole entry, looked up): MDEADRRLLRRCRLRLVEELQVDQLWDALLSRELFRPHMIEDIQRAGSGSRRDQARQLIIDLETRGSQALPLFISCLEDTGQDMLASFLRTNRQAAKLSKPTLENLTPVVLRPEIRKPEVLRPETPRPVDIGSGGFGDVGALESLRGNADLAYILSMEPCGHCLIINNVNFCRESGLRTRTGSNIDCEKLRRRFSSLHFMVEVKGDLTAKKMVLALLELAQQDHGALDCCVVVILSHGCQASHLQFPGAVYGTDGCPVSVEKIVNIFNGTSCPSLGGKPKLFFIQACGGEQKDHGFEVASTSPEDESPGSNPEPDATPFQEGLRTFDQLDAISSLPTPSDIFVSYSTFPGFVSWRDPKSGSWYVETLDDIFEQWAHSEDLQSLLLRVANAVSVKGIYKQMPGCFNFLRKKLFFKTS

This test concerns the target Caspase-3 (Homo sapiens) + Caspase-9 (Homo sapiens) (UniProt P42574+P55211). Put plainly: caspase-9/caspase-3 cascade inhibitors, SAR follow-up, selectivity assay for Apaf-1 inhibitor project, biochemical, fluorescence (AID 588577). Particulars: recombinant LZ-caspase-9 activating caspase-3, fluorogenic substrate.
In the case of `O=C(Nc1ccc2nc(-c3ccc(Br)o3)[nH]c2c1)c1cccs1`, the IC50 (as a rule, the concentration that inhibits the measured activity by half) is > 100 µM (inactive).

For the compound `CCN(CC)CCOC(=O)c1ccc(N/C=C(\C#N)c2nc(-c3ccc(Br)cc3)cs2)cc1`, the IC50 is > 100 µM (inactive).

`CC(=O)c1ccc(C(=O)Nc2ccc3nc(C)[nH]c3c2)s1`: the IC50 was > 100 µM (inactive).

With `CCN(CC)CCOC(=O)c1ccc(N/C=C(\C#N)c2nc(-c3ccc(Cl)c(Cl)c3)cs2)cc1`, the IC50 is 72 µM.

As to `CCN(CC)CCOC(=O)c1ccc(N/C=C(\C#N)c2nc(-c3cccs3)cs2)cc1`, the IC50 was > 100 µM (inactive).

On to `Cc1cc(NC(=O)C2CC2)sc1C(=O)Nc1ccc2nc(-c3cc(F)ccc3F)[nH]c2c1`, for which the IC50 is 89.7 µM.

Turning to `Cn1cc(C(CC(=O)c2ccc(C(C)(C)C)cc2)C(=O)O)c2ccccc21` (stereo not given), the IC50 was 85.3 µM.

For the compound `O=C(Nc1ccc(-c2nc3ccc(NC(=O)c4cccs4)cc3[nH]2)cc1)c1cccs1`, the IC50 is > 100 µM (inactive).

Consider `Cn1cc(C(CC(=O)c2ccc(C3CCCCC3)cc2)C(=O)O)c2ccccc21` (stereo not given), for which the IC50 was 98.8 µM.

As for `Cc1nc2ccc(-c3nc4ccc(NC(=O)c5cccs5)cc4[nH]3)cc2[nH]1`, the IC50 is > 100 µM (inactive).

On to `Cc1ccc2c(c1)C(=O)c1nc3ccccc3c(=O)n1-2`, for which the IC50 was > 100 µM (inactive).

In the case of `O=C1c2cc(Cl)ccc2-n2c1nc1ccccc1c2=O`, the IC50 is 89.6 µM.

`CCN(CC)CCOC(=O)c1ccc(N/C=C(/C#N)c2nc(-c3ccc4c(c3)OCO4)cs2)cc1`: the IC50 was > 100 µM (inactive).

As to `CCN(CC)CCOC(=O)c1ccc(N/C=C(/C#N)c2nc(-c3cc4ccccc4oc3=O)cs2)cc1`, the IC50 was > 100 µM (inactive).

For the compound `COc1ccc(N2C(=O)CC3(CC(c4ccc(F)cc4)=NO3)C2=O)cc1` (stereo not given), the IC50 was 37.5 µM.

`O=C(Nc1ccc2nc(-c3cccs3)[nH]c2c1)c1cccs1`: the IC50 was > 100 µM (inactive).

As to `O=C(Nc1ccc2c(c1)C(=O)NC2=O)c1nc2ccccc2s1`, the IC50 was > 100 µM (inactive).

In the case of `CCN(CC)CCOC(=O)c1ccc(N/C=C(/C#N)c2nc(-c3ccc(OC)c(OC)c3)cs2)cc1`, the IC50 is > 100 µM (inactive).

Take `Cc1ccc(-c2nc3ccc(NC(=O)c4cccs4)cc3[nH]2)o1`: the IC50 is > 100 µM (inactive).

Consider `CCN(CC)CCOC(=O)c1ccc(N/C=C(/C#N)c2nc(-c3ccc(OC)cc3)cs2)cc1`, for which the IC50 was > 100 µM (inactive).
